# Assay results reported in US20090012018A1, “Inhibition of pancretic cancer cell growth” (priority 2004, published 2009).
# “Also recorded” adds a separate entry of the source.
# Tests used:
# [1] = test system: Hedgehog signaling (GliBS-luc reporter); assay: GliBS-luciferase reporter assay; assay type: cell-based, human; details: CFPAC-1, BxPC3, L3.6sl, Panc4.21; cyclopamine 10 μM, sulindac 250 μM; FIG. 4B
# Method: The cell lines were plated the day prior to transfection at a density of 8×10^4 cells/well in a 24-well plate. The luciferase reporter constructs used included: Top-Flash and Fop-Flash containing multimerized Tcf-Lef binding sites or nonfunctional sites, respectively; TK-Luc (Promega); and GliBS containing 8×Gli binding sites upstream of the TK minimal promoter (Sasaki et al., Development, 124:1313-1322, 1997). In different experiments, the reporter constructs were co-transfected with an expression vector containing a dominant-negative form of Lef1 or the endogenous Wnt inhibitor Icat. The dominant negative Lef1 (gift from S. Pleasure) was generated by cloning the 63 amino acid N-terminal deleted form of Lef1 into the pEF5 plasmid. This construct also contains an IRES-EGFP cassette. The cDNA coding for the Icat protein was cloned into pIRES2-EGFP (BD Biosciences Clontech). Transfections were performed using the Effectene transfection reagent […] according to the user's manual. A Renilla luciferase plasmid (Promega) was included to control for transfection efficiency. Transfected cells were cultured in medium containing serum. […] Cells were harvested 24 hrs after transfection, and luciferase activity was assayed using the Dual Luciferase kit (Promega), according to the user's manual. […]
# Tcf1 = assay: Immunofluorescence of Tcf expression in pancreatic cancer cells; assay type: cell-based, human; details: pancreatic cancer cells (Panc4.21); cyclopamine for 24 hrs (FIG. 4C) or sulindac-treated
# BxPC3 tumors = assay: Subcutaneous tumor treatment in nude mice; assay type: in vivo, CD-1 nude mice
# Method: (§1) A total of 0.1 ml Hanks' balanced salt solution and matrigel (1:1) containing 2×10^6 cells was injected subcutaneously into CD-1 nude mice (Charles River Laboratories). Tumors were grown for 4 days to a minimum volume of 125 mm^3. Treatment was initiated simultaneously for all subjects. Mice were injected with vector alone (peanut oil: PBS 7:3 v/v) or with a sulindac solution (3 mg/mouse/day) daily for 5 days. Sulindac sulfone was administered orally (1.5 mg/mouse/day). At the end of the treatment period, tumors were excised from mice, weighed and photographed.
# CFPAC-1 tumors = assay: Subcutaneous tumor treatment in nude mice; assay type: in vivo, CD-1 nude mice; details: treated for five days vs controls, sulindac 3 mg/mouse/day injected, sulindac sulfone 1.5 mg/mouse/day orally
# Method: as §1
# [2] = test system: pancreatic adenocarcinoma cell lines; assay: Growth, BrdU incorporation and apoptosis of pancreatic cancer cell lines (results stated for the lines together); assay type: cell-based, human; details: 7/13 lines
# Method: The small chemical inhibitors were used at the following final concentrations: up to 250 μM for sulindac (Sigma), up to 300 μM for sulindac sulfone (Calbiochem or ICN), NS-398 up to 25 μM (Calbiochem), sodium salicylate up to 100 μM (Calbiochem). […] To test for drug sensitivity, the cells were plated in control medium or in medium containing the drug of interest for 2 to 5 days. The culture media was changed every 48 hrs. The images showing cell morphology were taken with a Nikon inverted microscope.
# Cells were pulsed with 10 μM BrdU for two hours and then harvested and fixed. BrdU incorporation was detected with a fluorescein isothiocyanate conjugated anti-BrdU antibody (BD Biosciences) and total DNA was stained with 7-AAD (BD Biosciences). FACS analysis was performed according to the BD Biosciences BrdU flow kit manual. Cells in S-phase were defined as the BrdU-positive cell population with a DNA content between 2N and 4N. According to the manual, apoptotic cells were defined as a subpopulation of G0/G1 cells with DNA content lower than the diploid amount (<2N).
# The cell lines were plated the day prior to transfection at a density of 8×10^4 cells/well in a 24-well plate. The luciferase reporter constructs used included: Top-Flash and Fop-Flash containing multimerized Tcf-Lef binding sites or nonfunctional sites, respectively; TK-Luc (Promega); and GliBS containing 8×Gli binding sites upstream of the TK minimal promoter (Sasaki et al., Development, 124:1313-1322, 1997). In different experiments, the reporter constructs were co-transfected with an expression vector containing a dominant-negative form of Lef1 or the endogenous Wnt inhibitor Icat. The dominant negative Lef1 (gift from S. Pleasure) was generated by cloning the 63 amino acid N-terminal deleted form of Lef1 into the pEF5 plasmid. This construct also contains an IRES-EGFP cassette. The cDNA coding for the Icat protein was cloned into pIRES2-EGFP (BD Biosciences Clontech). Transfections were performed using the Effectene transfection reagent […] according to the user's manual. A Renilla luciferase plasmid (Promega) was included to control for transfection efficiency. Transfected cells were cultured in medium containing serum. […] Cells were harvested 24 hrs after transfection, and luciferase activity was assayed using the Dual Luciferase kit (Promega), according to the user's manual.
# Small interfering RNA (siRNA) oligonucleotides against β-catenin containing two thymidine residues (dTdT) at the 3′ end of the sequence (5′-[…] […] T-3′ set forth as SEQ ID NO:57) were used for treatment of cancer cells as described (Verma et al., Clin Cancer Res, 9:1291-1300, 2003). The GLI1 siRNA (sense 5′-[…] […]-3′ set forth as SEQ ID NO:58) was also used as described (Sanchez et al., Proc Natl Acad Sci USA 101:12561-12566, 2004). Small interfering RNA against GLI2 was ordered against the target sequence 5-[…] […] A-3′, set forth as SEQ ID NO:59). […] Cells were transfected with oligofectamine (Invitrogen) according to the user's manual, with a final siRNA concentration of 100 or 300 nM. Transfected cells were incubated for 48 hrs before harvesting.
smiles,measurement,setting,value
CC1=C(CC(=O)O)c2cc(F)ccc2/C1=C\c1ccc([S+](C)[O-])cc1 (stereo not drawn) [sulindac],activity of the GliBS-luc Hedgehog reporter,[1],unaffected; also recorded: had no affect
same,Tcf1 expression,Tcf1,reduced
same,reduction in tumor volume compared to untreated samples,BxPC3 tumors; sulindac 3 mg/mouse/day injected daily for 5 days,80%
same,tumor growth,"BxPC3 tumors; treated for five days vs untreated controls, sulindac 3 mg/mouse/day injected, sulindac sulfone 1.5 mg/mouse/day orally",strongly reduced
same,"tumor growth (volume, size)",CFPAC-1 tumors,largely unaffected; also recorded: No reduction
same,lines tested with measurable reduction in cell proliferation,[2],54%
